Where a name gives a salt, the structure may show the parent alone.
Target: T1, AR (Homo sapiens, UniProt P10275)
T1 construct: endogenous in cells; host or cells: VCaP cells
T1 sequence (P10275 1-920): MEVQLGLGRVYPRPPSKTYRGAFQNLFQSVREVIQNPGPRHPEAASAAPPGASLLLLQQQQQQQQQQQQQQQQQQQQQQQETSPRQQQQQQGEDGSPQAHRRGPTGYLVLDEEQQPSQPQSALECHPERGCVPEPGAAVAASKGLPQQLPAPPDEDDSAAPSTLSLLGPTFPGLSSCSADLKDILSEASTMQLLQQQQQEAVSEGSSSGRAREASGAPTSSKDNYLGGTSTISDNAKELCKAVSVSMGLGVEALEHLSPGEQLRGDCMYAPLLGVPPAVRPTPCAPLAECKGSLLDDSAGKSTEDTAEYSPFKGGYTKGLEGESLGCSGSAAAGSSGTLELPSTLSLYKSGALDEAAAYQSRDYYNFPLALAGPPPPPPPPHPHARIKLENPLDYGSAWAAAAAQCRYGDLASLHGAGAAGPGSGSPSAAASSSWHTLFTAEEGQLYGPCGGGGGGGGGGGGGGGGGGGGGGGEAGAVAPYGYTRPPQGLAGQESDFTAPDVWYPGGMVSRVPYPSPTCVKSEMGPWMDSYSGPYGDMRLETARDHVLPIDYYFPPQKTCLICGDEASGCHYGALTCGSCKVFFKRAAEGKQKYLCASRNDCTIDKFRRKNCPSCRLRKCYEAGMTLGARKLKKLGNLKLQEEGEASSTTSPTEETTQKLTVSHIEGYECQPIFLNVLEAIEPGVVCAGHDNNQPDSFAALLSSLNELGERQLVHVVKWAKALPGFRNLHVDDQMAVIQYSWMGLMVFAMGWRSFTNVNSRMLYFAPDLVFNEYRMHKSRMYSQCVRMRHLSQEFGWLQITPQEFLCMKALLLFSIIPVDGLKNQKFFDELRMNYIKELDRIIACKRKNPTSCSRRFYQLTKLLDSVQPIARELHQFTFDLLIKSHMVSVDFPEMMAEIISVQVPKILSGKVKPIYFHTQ
Assay: VCAP AR Degradation Assay
Format: cell-based
Details: for Y (AR degradation efficiency, % of DMSO control): class symbols *; for DC50: class symbols A-C, read-out: DC50
In short: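 Compounds were plated as 10-point 1:3 series reaching 5 μM final, then VCaP cells were seeded onto them and incubated 24 h at 37 °C. Cells were lysed cold, and total AR was measured by sandwich ELISA relative to 0.1% DMSO wells.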

Structure (SMILES) | Y (AR degradation efficiency, % of DMSO control) | DC50
CCc1c(OCCN2C[C@@H](C)N(CC(=O)Nc3cccc(NC4CCC(=O)NC4=O)c3)[C@@H](C)C2)ccc(N2C(=S)N(c3ccc(C#N)c(C(F)(F)F)c3)C(=O)C2(C)C)c1F (stereo partly drawn) [Example 271, 2-((2S,6R)-4-(2-(4-(3-(4-cyano-3-(trifluoromethyl)phenyl)-5,5-dimethyl-4-oxo-2-thioxoimidazolidin-1-yl)-2-ethyl-3-fluorophenoxy)ethyl)-2,6-dimethylpiperazin-1-yl)-N-(3-(2,6-dioxopiperidin-3-ylamino)phenyl)acetamide] | * (0<Y<=25%) | < 100 nM
CC(C)c1cc(N2C(=S)N(c3cnc(C#N)c(C(F)(F)F)c3)C(=O)C2(C)C)ccc1OCCN1CCN(CC(=O)Nc2cccc(NC3CCC(=O)NC3=O)c2)CC1 (centres unmarked) [Example 53, 2-(4-(2-(4-(3-(6-cyano-5-(trifluoromethyl)pyridin-3-yl)-5,5-dimethyl-4-oxo-2-thioxoimidazolidin-1-yl)-2-isopropylphenoxy)ethyl)piperazin-1-yl)-N-(3-(2,6-dioxopiperidin-3-ylamino)phenyl)acetamide] | * (0<Y<=25%) | < 100 nM
CCc1cc(N2C(=S)N(c3cnc(C#N)c(C(F)(F)F)c3)C(=O)C23CCC3)ccc1OCCN1CCN(CC(=O)Nc2cc(Cl)cc(NC3CCC(=O)NC3=O)c2)[C@H](C)C1 (stereo partly drawn) [Example 106, N-(3-chloro-5-(2,6-dioxopiperidin-3-ylamino)phenyl)-2-((R)-4-(2-(4-(7-(6-cyano-5-(trifluoromethyl)pyridin-3-yl)-8-oxo-6-thioxo-5,7-diazaspiro[3.4]octan-5-yl)-2-ethylphenoxy)ethyl)-2-methylpiperazin-1-yl)acetamide] | * (0<Y<=25%) | < 100 nM
N#Cc1ccc(N2C(=O)C3(CCOC3)N(c3ccc(OCCN4CCN(CC(=O)Nc5cc(Cl)cc(NC6CCC(=O)NC6=O)c5)CC4)c(F)c3)C2=S)cc1C(F)(F)F (single isomer, unassigned) [Example 54, N-(3-chloro-5-(2,6-dioxopiperidin-3-ylamino)phenyl)-2-(4-(2-(4-(3-(4-cyano-3-(trifluoromethyl)phenyl)-4-oxo-2-thioxo-7-oxa-1,3-diazaspiro[4.4]nonan-1-yl)-2-fluorophenoxy)ethyl)piperazin-1-yl)acetamide] | * (0<Y<=25%) | < 100 nM
CCc1cc(N2C(=S)N(c3ccc(C#N)c(C(F)(F)F)c3)C(=O)C2(C)C)cnc1OCCN1C[C@@H](C)N(CC(=O)Nc2cc(Cl)cc(NC3CCC(=O)NC3=O)c2)C[C@H]1C (stereo partly drawn) [Example 189, N-(3-chloro-5-(2,6-dioxopiperidin-3-ylamino)phenyl)-2-((2R,5R)-4-(2-(5-(3-(4-cyano-3-(trifluoromethyl)phenyl)-5,5-dimethyl-4-oxo-2-thioxoimidazolidin-1-yl)-3-ethylpyridin-2-yloxy)ethyl)-2,5-dimethylpiperazin-1-yl)acetamide] | * (0<Y<=25%) | < 100 nM
CCc1cc(N2C(=S)N(c3ccc(C#N)c(C(F)(F)F)c3)C(=O)C2(C)C)ccc1OCCN1CCN(CC(=O)Nc2cccc(NC3CCC(=O)NC3=O)c2)[C@H](C)C1 (some centres unmarked) [Example 45] | * (0<Y<=25%) | < 100 nM
CCc1cc(N2C(=S)N(c3cnc(C#N)c(C(F)(F)F)c3)C(=O)C2(C)C)ccc1OCCN1CCN(CC(=O)Nc2cccc(NC3CCC(=O)NC3=O)c2)C(C)(C)C1 (centres unmarked) [Example 97, 2-(4-(2-(4-(3-(6-cyano-5-(trifluoromethyl)pyridin-3-yl)-5,5-dimethyl-4-oxo-2-thioxoimidazolidin-1-yl)-2-ethylphenoxy)ethyl)-2,2-dimethylpiperazin-1-yl)-N-(3-(2,6-dioxopiperidin-3-ylamino)phenyl)acetamide] | * (0<Y<=25%) | < 100 nM
CC(F)(F)c1cc(N2C(=S)N(c3cnc(C#N)c(C(F)(F)F)c3)C(=O)C2(C)C)ccc1OCCN1CCN(CC(=O)Nc2cc(F)cc(NC3CCC(=O)NC3=O)c2)CC1 (centres unmarked) [Example 80, 2-(4-(2-(4-(3-(6-cyano-5-(trifluoromethyl)pyridin-3-yl)-5,5-dimethyl-4-oxo-2-thioxoimidazolidin-1-yl)-2-(1,1-difluoroethyl)phenoxy)ethyl)piperazin-1-yl)-N-(3-(2,6-dioxopiperidin-3-ylamino)-5-fluorophenyl)acetamide] | * (0<Y<=25%) | < 100 nM
CC[C@H]1CN(CCOc2ccc(N3C(=S)N(c4ccc(C#N)c(C(F)(F)F)c4)C(=O)C3(C)C)cc2C2CC2)CCN1CC(=O)Nc1cccc(NC2CCC(=O)NC2=O)c1 (stereo partly drawn) [Example 263, 2-((S)-4-(2-(4-(3-(4-cyano-3-(trifluoromethyl)phenyl)-5,5-dimethyl-4-oxo-2-thioxoimidazolidin-1-yl)-2-cyclopropylphenoxy)ethyl)-2-ethylpiperazin-1-yl)-N-(3-(2,6-dioxopiperidin-3-ylamino)phenyl)acetamide] | * (0<Y<=25%) | < 100 nM
CCc1cc(N2C(=S)N(c3cnc(C#N)c(C(F)(F)F)c3)C(=O)C2(C)C)ccc1O[C@H](C)CN1C[C@@H](C)N(CC(=O)Nc2cccc(NC3CCC(=O)NC3=O)c2)[C@@H](C)C1 (single isomer, unassigned) [Example 239] | * (0<Y<=25%) | < 100 nM
CCc1cc(N2C(=S)N(c3ccc(C#N)c(C(F)(F)F)c3)C(=O)C2(C)C)ccc1OCCN1CCN(CC(=O)Nc2cc(F)cc(NC3CCC(=O)NC3=O)c2)[C@H](C)C1 (stereo partly drawn) [Example 90, 2-((R)-4-(2-(4-(3-(4-cyano-3-(trifluoromethyl)phenyl)-5,5-dimethyl-4-oxo-2-thioxoimidazolidin-1-yl)-2-ethylphenoxy)ethyl)-2-methylpiperazin-1-yl)-N-(3-(2,6-dioxopiperidin-3-ylamino)-5-fluorophenyl)acetamide] | * (0<Y<=25%) | < 100 nM
CCc1cc(N2C(=S)N(c3cnc(C#N)c(C(F)(F)F)c3)C(=O)C2(C)C)ccc1OCCN1CCN(CC(=O)Nc2cc(F)cc(NC3CCC(=O)NC3=O)c2)C(C)(C)C1 (centres unmarked) [Example 77, 2-(4-(2-(4-(3-(6-cyano-5-(trifluoromethyl)pyridin-3-yl)-5,5-dimethyl-4-oxo-2-thioxoimidazolidin-1-yl)-2-ethylphenoxy)ethyl)-2,2-dimethylpiperazin-1-yl)-N-(3-(2,6-dioxopiperidin-3-ylamino)-5-fluorophenyl)acetamide] | * (0<Y<=25%) | < 100 nM
CCc1cc(N2C(=S)N(c3ccc(C#N)c(C(F)(F)F)c3)C(=O)C2(C)C)ccc1OCCN1C[C@@H](C)N(CC(=O)Nc2cccc(NC3CCC(=O)NC3=O)c2)C[C@H]1C (stereo partly drawn) [Example 127, 2-((2R,5R)-4-(2-(4-(3-(4-cyano-3-(trifluoromethyl)phenyl)-5,5-dimethyl-4-oxo-2-thioxoimidazolidin-1-yl)-2-ethylphenoxy)ethyl)-2,5-dimethylpiperazin-1-yl)-N-(3-(2,6-dioxopiperidin-3-ylamino)phenyl)acetamide] | * (0<Y<=25%) | < 100 nM
C[C@@H]1CN(CCOc2ccc(N3C(=S)N(c4ccc(C#N)c(C(F)(F)F)c4)C(=O)C3(C)C)cc2C2CC2)C[C@H](C)N1CC(=O)Nc1cccc(NC2CCC(=O)NC2=O)c1 (stereo partly drawn) [Example 204, 2-((2S,6R)-4-(2-(4-(3-(4-cyano-3-(trifluoromethyl)phenyl)-5,5-dimethyl-4-oxo-2-thioxoimidazolidin-1-yl)-2-cyclopropylphenoxy)ethyl)-2,6-dimethylpiperazin-1-yl)-N-(3-(2,6-dioxopiperidin-3-ylamino)phenyl)acetamide] | * (0<Y<=25%) | < 100 nM
CCc1cc(N2C(=S)N(c3ccc(C#N)c(C(F)(F)F)c3)C(=O)C2(C)C)ccc1OCCN1CCN(CC(=O)Nc2cc(Cl)cc(NC3CCC(=O)NC3=O)c2)C2(CC2)C1 (centres unmarked) [Example 101, N-(3-chloro-5-(2,6-dioxopiperidin-3-ylamino)phenyl)-2-(7-(2-(4-(3-(4-cyano-3-(trifluoromethyl)phenyl)-5,5-dimethyl-4-oxo-2-thioxoimidazolidin-1-yl)-2-ethylphenoxy)ethyl)-4,7-diazaspiro[2.5]octan-4-yl)acetamide] | * (0<Y<=25%) | < 100 nM
Cc1cc(NC(=O)CN2CCN(CCOc3ccc(N4C(=S)N(c5ccc(C#N)c(C(F)(F)F)c5)C(=O)C4(C)C)cc3F)CC2)cc(NC2CCC(=O)NC2=O)c1 (centres unmarked) [Example 15, hydrochloride] | ** (25%<Y<=35%) | < 100 nM
